ChEMBL document CHEMBL1201862, “PubChem BioAssay data set” (2004)
The source made the active and inactive calls.

Experiments:
[1] = HEK293T cell cytotoxicity, dose response, cytotoxicity control, luminescence plate reader, powder samples, set 4 (AID 651863); assay type: functional, cell-based; details: HEK293
[2] = A549 cell cytotoxicity, dose response, cytotoxicity control, 24 h, CellTiter-Glo luminescence, cherry-picks (AID 1053115); assay type: functional, cell-based; details: A549, 24 h
[3] = Late stage assay provider results from the probe development effort to identify selective inhibitors of heat shock protein 90 (HSP90): Absorbance-based cell proliferation assay in SKBR3 cells.; assay type: functional; details: SK-BR-3
[4] = Late stage assay provider results from the probe development effort to identify selective inhibitors of heat shock protein 90 (HSP90): Absorbance-based cell proliferation assay in MCF7 cells.; assay type: functional
CHO = assay: cytotoxicity in TLR9-MyD88 CHO cells, dose response, cytotoxicity control for TLR9-MyD88 binding inhibitor project, cell-based, luminescence (AID 588339); assay type: functional, hamster; details: Cricetulus griseus;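 further: CHO cells stably coexpressing TLR9 and MyD88 fusions from primary screen; compound exposure lasted 48 hours before viability readout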
Beta Lactamase = Beta Lactamase (Pseudomonas aeruginosa, UniProt Q932Y6); assay: beta-lactamase reporter inhibitor potency, dose response, artefact control for TLR9-MyD88 binding inhibitor project, BLA reporter cells, FRET fluorescence (AID 588341); assay type: cell-based;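 further: cell based assay in CHO-K1 cells stably expressing beta-lactamase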
[5] = target: T1, Rac GTPase-activating protein 1 (Homo sapiens, UniProt Q9H0H5); assay: MgcRacGAP GTPase-activating activity inhibitors, confirmation, biochemical, ADP Hunter fluorescence, primary and confirmatory (AID 624330); assay type: functional
T1 sequence (Q9H0H5 whole entry): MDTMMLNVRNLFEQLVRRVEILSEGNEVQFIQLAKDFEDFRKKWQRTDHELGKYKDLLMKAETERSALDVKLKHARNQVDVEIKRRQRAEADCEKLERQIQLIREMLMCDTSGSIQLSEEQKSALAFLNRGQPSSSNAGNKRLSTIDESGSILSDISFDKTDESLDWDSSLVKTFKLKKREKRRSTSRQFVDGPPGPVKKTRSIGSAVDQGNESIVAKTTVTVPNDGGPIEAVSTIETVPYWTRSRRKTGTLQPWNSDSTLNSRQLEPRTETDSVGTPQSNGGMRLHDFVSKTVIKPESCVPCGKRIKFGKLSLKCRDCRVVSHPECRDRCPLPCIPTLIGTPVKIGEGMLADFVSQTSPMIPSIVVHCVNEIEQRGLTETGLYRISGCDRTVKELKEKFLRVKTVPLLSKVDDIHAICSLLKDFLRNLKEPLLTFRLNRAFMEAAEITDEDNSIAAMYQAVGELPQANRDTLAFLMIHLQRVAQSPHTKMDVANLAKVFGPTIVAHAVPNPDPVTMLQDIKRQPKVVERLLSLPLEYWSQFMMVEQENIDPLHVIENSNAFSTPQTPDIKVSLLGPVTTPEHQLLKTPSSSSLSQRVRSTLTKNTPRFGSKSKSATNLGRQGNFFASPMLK

[6] = HeLa cell cytotoxicity, dose response, cytotoxicity control for MgcRacGAP inhibitor project (AID 624300); assay type: functional
[7] = inhibitors of PGC1a acetylation in cells, dose response, cell-based, cherry-picked samples (AID 720514); assay type: functional;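 further: potency may reflect raised or lowered acetylation signal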
[8] = Late stage assay provider counterscreen for TLR9 inhibitors: absorbance-based cell-based MTT cytotoxicity assay.; assay type: functional
[9] = A Cell-Based Confirmatory Screen for Compounds that Inhibit VEEV, TC-83 (8).; assay type: functional
[10] = target: Metabotropic glutamate receptor 5 (Rattus norvegicus, UniProt P31424); assay: Identification of a glycine sulfonamide based non-MPEP site positive allosteric potentiator (PAM) of mGlu5 (calcium_assay).; assay type: functional
Mu-type opioid receptor = Mu-type opioid receptor (Homo sapiens, UniProt P35372); assay: Late-stage results from the probe development effort to identify antagonists of OPRK1: luminescence-based cell-based dose response OPRM1 counterscreen.; assay type: functional
[11] = target: Delta-type opioid receptor (Homo sapiens, UniProt P41143); assay: Late-stage results from the probe development effort to identify antagonists of OPRK1: fluorescence-based cell-based dose response OPRD1 counterscreen.; assay type: functional
[12] = target: Disintegrin and metalloproteinase domain-containing protein 17 (Homo sapiens, UniProt P78536); assay: ADAM17 protease inhibitors, dose response, counter-screen for ADAM10 exosite inhibitor project, biochemical, quenched FRET substrate (AID 743253)
[13] = ADAM10 inhibitors, peptide cleavage, dose response, biochemical, QFRET (AID 743254);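 further: ADAM10 enzyme with the DM2 quenched FRET peptide as substrate; EDANS fluorescence gain as the protease cuts the substrate; inhibitor potency against ADAM10 proteolytic activity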
[14] = inhibitors of non-replicating M. tuberculosis, dose response, luciferase, dry powder (AID 651619); assay type: functional; details: Mycobacterium tuberculosis
[15] = inhibitors of non-replicating M. tuberculosis, dose response, luciferase, dry powder (AID 651620); assay type: functional; details: Mycobacterium tuberculosis
[16] = growth inhibition of replicating M. tuberculosis, dose response, counter-screen, dry powder, IC90 (AID 651617); assay type: functional; details: Mycobacterium tuberculosis
[17] = HEK293T cell cytotoxicity, dose response, cytotoxicity control, CellTiter-Glo luminescence, dry powder, set 6 (AID 651949); assay type: functional, cell-based; details: HEK293
[18] = target: E3 ubiquitin-protein ligase UHRF1 (Homo sapiens, UniProt Q96T88); assay: Counterscreen for inhibitors of 5-meCpG-binding domain protein 2 (MBD2): TRFRET-based biochemical high throughput dose response assay to identify inhibitors of binding of ubiquitin-like with PHD and ring finger domains 1 (UHRF1) to methylated oligonucleotide.
E3 ubiquitin-protein ligase UHRF1, sequence (Q96T88 whole entry, the tested form may be a part): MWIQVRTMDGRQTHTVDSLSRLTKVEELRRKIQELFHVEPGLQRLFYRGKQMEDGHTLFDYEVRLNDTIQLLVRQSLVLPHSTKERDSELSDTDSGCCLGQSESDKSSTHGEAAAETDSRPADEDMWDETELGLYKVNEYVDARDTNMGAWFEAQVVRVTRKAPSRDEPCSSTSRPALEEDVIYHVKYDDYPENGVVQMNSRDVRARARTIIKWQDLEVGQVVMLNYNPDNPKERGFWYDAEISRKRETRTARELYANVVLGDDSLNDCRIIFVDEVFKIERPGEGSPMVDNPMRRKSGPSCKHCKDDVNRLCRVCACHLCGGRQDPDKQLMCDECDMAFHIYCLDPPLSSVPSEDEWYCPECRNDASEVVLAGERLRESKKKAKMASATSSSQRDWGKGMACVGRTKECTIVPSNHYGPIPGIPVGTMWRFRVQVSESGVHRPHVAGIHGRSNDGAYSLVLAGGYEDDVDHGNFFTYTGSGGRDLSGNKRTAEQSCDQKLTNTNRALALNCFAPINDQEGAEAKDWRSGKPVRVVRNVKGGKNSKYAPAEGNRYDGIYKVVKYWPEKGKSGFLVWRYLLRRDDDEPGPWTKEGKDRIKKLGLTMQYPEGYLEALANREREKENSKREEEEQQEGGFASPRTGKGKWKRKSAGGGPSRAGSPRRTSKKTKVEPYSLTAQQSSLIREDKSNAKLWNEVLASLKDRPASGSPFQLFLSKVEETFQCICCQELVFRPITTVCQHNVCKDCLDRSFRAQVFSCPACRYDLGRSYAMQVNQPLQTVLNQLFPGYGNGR

Mu-type opioid receptor, sequence (P35372 whole entry): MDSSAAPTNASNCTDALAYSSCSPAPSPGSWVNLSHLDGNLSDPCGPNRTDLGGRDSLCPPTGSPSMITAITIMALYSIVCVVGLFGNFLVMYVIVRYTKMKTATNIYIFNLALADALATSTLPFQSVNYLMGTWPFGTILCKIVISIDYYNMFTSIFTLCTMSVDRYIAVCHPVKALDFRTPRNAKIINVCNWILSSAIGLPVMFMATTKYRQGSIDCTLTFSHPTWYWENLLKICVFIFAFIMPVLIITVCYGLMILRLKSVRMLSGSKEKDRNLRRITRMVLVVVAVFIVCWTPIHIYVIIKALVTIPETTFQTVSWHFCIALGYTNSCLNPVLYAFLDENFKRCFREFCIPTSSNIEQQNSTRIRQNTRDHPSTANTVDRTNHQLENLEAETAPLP
Beta Lactamase, sequence (Q932Y6 whole entry): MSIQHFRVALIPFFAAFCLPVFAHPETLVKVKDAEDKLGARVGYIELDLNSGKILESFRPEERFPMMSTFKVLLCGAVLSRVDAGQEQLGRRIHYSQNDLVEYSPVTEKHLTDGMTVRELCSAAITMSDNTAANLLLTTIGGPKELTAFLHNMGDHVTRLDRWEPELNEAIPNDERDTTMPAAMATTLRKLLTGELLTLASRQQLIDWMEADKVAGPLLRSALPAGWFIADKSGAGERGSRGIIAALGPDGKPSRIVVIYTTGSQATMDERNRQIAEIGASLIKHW
Metabotropic glutamate receptor 5, sequence (P31424 whole entry): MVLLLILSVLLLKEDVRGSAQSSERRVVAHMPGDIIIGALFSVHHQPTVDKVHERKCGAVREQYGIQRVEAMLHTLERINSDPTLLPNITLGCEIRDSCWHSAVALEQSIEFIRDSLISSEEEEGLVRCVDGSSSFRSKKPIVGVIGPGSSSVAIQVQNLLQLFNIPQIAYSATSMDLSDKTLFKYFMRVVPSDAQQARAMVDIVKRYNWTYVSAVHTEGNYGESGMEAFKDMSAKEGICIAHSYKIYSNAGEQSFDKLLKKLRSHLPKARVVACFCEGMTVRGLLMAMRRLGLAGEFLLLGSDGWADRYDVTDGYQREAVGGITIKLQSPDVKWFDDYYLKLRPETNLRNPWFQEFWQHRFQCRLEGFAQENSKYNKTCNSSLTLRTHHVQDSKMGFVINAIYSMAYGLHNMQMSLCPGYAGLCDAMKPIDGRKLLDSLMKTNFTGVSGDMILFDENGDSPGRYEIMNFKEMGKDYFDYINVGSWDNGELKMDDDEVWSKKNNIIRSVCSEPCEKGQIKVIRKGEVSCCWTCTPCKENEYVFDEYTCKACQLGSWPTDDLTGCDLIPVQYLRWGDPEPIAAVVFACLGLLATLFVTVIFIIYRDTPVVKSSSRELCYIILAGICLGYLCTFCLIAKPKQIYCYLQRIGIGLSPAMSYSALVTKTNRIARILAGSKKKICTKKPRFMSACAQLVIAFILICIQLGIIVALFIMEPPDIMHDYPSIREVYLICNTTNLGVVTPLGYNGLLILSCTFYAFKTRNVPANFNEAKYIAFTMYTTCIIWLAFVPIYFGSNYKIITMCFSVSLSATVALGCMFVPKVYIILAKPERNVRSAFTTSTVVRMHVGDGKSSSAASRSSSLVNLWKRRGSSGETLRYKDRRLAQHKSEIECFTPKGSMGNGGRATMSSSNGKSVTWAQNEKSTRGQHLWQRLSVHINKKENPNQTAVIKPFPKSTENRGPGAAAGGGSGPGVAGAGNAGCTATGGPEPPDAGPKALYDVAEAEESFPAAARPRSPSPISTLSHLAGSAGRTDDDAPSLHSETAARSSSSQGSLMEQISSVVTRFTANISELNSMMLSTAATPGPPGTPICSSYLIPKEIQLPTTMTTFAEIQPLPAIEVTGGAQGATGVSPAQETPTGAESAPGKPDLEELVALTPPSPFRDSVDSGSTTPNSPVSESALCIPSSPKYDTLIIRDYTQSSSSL
Disintegrin and metalloproteinase domain-containing protein 17, sequence (P78536 whole entry, the tested form may be a part): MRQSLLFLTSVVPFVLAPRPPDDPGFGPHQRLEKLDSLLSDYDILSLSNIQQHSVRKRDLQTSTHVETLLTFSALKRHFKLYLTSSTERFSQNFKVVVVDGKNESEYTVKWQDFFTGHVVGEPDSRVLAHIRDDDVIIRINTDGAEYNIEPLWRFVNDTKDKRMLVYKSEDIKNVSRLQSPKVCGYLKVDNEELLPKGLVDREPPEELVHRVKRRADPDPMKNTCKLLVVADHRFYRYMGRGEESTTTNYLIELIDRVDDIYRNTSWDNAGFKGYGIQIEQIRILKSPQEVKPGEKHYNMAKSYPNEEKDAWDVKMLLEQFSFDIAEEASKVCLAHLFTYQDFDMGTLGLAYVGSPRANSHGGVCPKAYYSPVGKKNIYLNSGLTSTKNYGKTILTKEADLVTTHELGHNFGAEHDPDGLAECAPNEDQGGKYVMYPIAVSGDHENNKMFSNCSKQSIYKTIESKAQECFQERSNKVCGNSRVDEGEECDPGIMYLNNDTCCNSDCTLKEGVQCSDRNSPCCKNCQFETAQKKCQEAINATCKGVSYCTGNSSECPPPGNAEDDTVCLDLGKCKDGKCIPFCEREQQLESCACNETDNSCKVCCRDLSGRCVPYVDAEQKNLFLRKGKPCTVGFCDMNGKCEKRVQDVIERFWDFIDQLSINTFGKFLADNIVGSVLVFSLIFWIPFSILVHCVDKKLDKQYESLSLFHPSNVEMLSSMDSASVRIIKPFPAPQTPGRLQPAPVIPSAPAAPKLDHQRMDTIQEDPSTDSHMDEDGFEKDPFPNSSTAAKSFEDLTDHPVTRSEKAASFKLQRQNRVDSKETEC
Delta-type opioid receptor, sequence (P41143 whole entry, the tested form may be a part): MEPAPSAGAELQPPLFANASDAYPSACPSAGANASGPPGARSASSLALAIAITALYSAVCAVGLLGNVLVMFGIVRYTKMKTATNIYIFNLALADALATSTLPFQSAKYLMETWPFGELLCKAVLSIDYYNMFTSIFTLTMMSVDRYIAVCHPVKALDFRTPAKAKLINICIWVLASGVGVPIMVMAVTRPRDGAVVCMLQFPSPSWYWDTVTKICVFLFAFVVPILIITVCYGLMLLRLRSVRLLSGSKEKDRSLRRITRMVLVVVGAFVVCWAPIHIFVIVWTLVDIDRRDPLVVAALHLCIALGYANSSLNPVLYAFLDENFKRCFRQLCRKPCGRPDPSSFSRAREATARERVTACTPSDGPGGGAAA

## O=C(NC[C@@H]1c2ccccc2CCN1C(=O)[C@@H]1CCCC[C@@H]1C(=O)O)OCC1c2ccccc2-c2ccccc21
[1]
  AC50: 46.3 µM (active)

## OC[C@H]1Nc2ccc(-c3cccc(F)c3)cc2[C@H]2[C@@H]1CCN2Cc1ccc(F)cc1
[2]
  AC50: 45.3 µM (active)

## COc1c[nH]c(C(=O)Nc2cccc(C(C)=O)c2)cc1=O
[3]
  IC50: > 100 µM (inactive)
[4]
  IC50: > 100 µM (inactive)

## O=C1C=CC2(C=C1)O[C@H](Cc1ccccc1)[C@@H](Cc1ccccc1)O2
CHO
  IC50: 0.57 µM (active)
Beta Lactamase
  IC50: 21.8 µM (inactive)
[5]
  IC50: 49.6 µM (active)
[6]
  CC50: 46.5 µM (active)
[7]
  AC50: 1.05 µM (active)
[8]
  CC50: 0.88 µM (active)

## CNCCN(C)Cc1nc2ccc(C#N)cc2c(=O)n1-c1ccccc1F
[9]
  IC50: 3.69 µM (active)

## CS(=O)(=O)N(CC(=O)Nc1ccc(F)cc1F)c1cc(C(F)(F)F)ccc1Cl
[10]
  EC50: 2.41 µM

## CC(C)OC(=O)c1cc(Br)cnc1N1CCC(NC2CCCCC2)CC1
Mu-type opioid receptor
  IC50: 20 µM (inactive)
[11]
  IC50: 3 µM (active)

## Cc1cccc([C@@H]2[C@@H]3C(=O)N(Cc4ccccc4)C(=O)[C@@H]3[C@]3(Cc4ccccc4)C(=O)N(c4ccc(C(F)(F)F)cc4)C(=O)N23)c1
[12]
  IC50: > 69.6 µM (inactive)
[13]
  IC50: > 69.6 µM (inactive)

## c1ccc(-n2cc(CSc3nnc(C4CCC4)o3)nn2)cc1
[14]
  IC90: 2 µM (active)
[15]
  IC90: 2 µM (active)
[16]
  IC90: 62 µM (active)
[17]
  AC50: > 52 µM (inactive)

## OCCCNCc1cccc2ccccc12
[18]
  IC50: > 43.9 µM (inactive)
